Columns and labels:
PPARα = target: T1, PPARα (Homo sapiens, UniProt Q07869); experiment: PPRE-luc reporter assay in CV-1 cells co-transfected with PPARα and RXRα expression plasmids; format: cell-based; conditions: luciferase reporter
T1 construct: expressed in transfected cells; host or cells: CV-1 (monkey kidney) cells
T1 sequence (Q07869 1-468): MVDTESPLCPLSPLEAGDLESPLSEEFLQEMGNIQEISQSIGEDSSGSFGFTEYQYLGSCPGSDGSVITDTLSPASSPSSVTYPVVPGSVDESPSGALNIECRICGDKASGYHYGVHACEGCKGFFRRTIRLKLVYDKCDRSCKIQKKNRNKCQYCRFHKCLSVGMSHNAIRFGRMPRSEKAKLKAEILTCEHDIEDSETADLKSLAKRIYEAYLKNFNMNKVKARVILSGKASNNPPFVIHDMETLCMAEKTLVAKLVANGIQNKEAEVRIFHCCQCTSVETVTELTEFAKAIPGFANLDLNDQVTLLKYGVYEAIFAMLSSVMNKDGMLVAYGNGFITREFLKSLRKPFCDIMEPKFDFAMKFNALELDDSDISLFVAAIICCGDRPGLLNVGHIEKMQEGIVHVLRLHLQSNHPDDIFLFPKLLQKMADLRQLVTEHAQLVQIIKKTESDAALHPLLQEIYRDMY
T1 sequence (P19793 1-462 partner): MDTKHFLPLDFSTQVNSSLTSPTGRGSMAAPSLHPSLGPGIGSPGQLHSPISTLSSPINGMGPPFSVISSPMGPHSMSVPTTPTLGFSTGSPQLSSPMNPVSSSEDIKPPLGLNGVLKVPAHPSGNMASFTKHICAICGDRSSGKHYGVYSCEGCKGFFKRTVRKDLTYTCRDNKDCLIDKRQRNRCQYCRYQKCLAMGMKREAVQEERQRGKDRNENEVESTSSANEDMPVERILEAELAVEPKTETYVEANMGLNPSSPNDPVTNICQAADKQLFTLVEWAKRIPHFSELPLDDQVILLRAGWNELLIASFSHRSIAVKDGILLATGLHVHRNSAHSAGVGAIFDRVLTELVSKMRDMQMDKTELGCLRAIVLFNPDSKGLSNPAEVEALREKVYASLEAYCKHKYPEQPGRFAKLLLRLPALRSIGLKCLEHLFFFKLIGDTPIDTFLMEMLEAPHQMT
Procedure: In brief, monkey kidney CV-1 cells were co-transfected with appropriate reporter constructs and expression vectors. The fold activation of the reporter construct by ligand was determined at several concentrations of selected compounds (FIG. 4).^20 To examine the effect of DY-compound on PPARα-mediated PPRE transcriptional activation, a PPRE-luc reporter assay was conducted using a PPRE-driven luciferase reporter-gene (PPRE-luc) plasmid and PPARα and RXRα gene expression plasmids in CV-1 cells.

[1] = Body weight and food intake of treated mice; format: in vivo
Procedure: Next, we would like to investigate the therapeutic potential of DY121 to see if it could be candidate for treating NAFLD/NASH. Note that the pathogenesis of NASH has not yet been fully elucidated so far; however, the ‘two-hit’ theory is widely accepted. The first hit is the accumulation of fatty acids in the liver to cause steatosis. […] The newly produced PPARα agonist DY121 and its analogs, as well as WY100=WY14643 and GW3 (GW7647), were evaluated in C57Bl/6J female mice for their ability to alter serum triglyceride, liver gene expression, and glucose. Fibric acid derivatives (100 mg/kg/day) was used as a control, WY100 (WY14, 643, 100 mg/kg/day), GW3 (GW7647-positive control, 3 mg/kg/day), DY121 (˜3 mg/kg/day), respectively. DY series compounds and controls administered once to C57Bl/6J female mice at 8 weeks of age. Mice were treated at 3 mg/kg for all compounds except WY14643 (100 mg/kg).

mouse PPARα = target: T2, mouse PPARα (Mus musculus, UniProt P23204); experiment: PPAR-GAL4 transactivation assay in transiently transfected CV-1 cells; format: cell-based; conditions: PPAR-GAL4 chimeric receptor, read-out: EC50(nM) mPPARα
T2 construct: expressed in transfected cells; host or cells: CV-1 (monkey kidney) cells, transient transfection
T2 sequence (P23204 159-468): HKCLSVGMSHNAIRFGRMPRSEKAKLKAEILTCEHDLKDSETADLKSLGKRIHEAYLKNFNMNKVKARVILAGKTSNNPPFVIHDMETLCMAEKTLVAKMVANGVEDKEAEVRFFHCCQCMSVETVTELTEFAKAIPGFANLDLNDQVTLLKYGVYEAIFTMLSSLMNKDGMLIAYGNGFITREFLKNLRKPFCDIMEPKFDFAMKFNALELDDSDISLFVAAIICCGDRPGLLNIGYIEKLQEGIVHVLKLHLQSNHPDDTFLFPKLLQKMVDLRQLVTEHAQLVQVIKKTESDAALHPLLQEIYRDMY
Procedure: To assess the functional transcriptional activity of these compounds, cell-based assays using chimeric receptor Gal4 DNA-binding domain (DBD)-NR ligand binding domain cotransfection assay (LBDs of PPARα, PPARγ, and PPARδ) were performed. As an initial screen to determine the PPARα activity and selectivity, all compounds were evaluated for in vitro potency and selectivity by transfection testing, using CV-1 cells transfected with human and mouse PPARs. MH100×4 is a luciferase reporter with four copies of a GAL4 UASG response element, where GAL-I refers to the ligand-binding domain of the indicated receptor fused to the C-terminus of the GAL4 DNA-binding domain. Assays were performed using a Biomek automated workstation in which the genes for the nuclear receptor, as well as a plasmid containing a response element upstream of a luciferase cDNA, are transfected into CV-1 cells. Compounds were evaluated for their ability to activate human and mouse PPARs at […] test concentrations. […] The transactivation activity of the series of compounds (DY121-132, 10a-g) toward PPARα was expressed as EC50, which is the concentration of the test compound that affords half-maximum activity, as summarized in Table 1.
In vitro binding and transfection studies. As an initial screen to determine the PPARα, PPARγ, and PPARδ activity, all compounds were evaluated for in vitro potency and selectivity by transfection testing, using CV-1 cells transfected with human and mouse PPARs. MH100×4 is a luciferase reporter with four copies of a GAL4 USAG response element, where GAL-I refers to the ligand-binding domain of the indicated receptor fused to the C-terminus of the GAL4 DNA-binding domain. Assays were performed using a Biomek automated workstation in which the gene for the nuclear receptor, as well as a plasmid containing a response element upstream of a luciferase cDNA, are transfected into CV-1 cells. Compounds were evaluated for their ability to activate human PPARs at 1, 2.5, 3, and 5 uM test concentrations.
Compounds were screened for agonist activity towards PPAR-GAL4 chimeric receptors in transiently transfected CV-1 cells as described. EC50 is the concentration of test compound that gave 50% maximum efficacy.

COc1ccc(Cn2c(CCCc3ccc(OC(C)(C)C(=O)O)cc3)nn(Cc3ccc(C)cc3)c2=O)cc1 [10a, 2-(4-{3-[4-(4-Methoxy-benzyl)-1-(4-methyl-benzyl)-5-oxo-4,5-dihydro-1H[1,2,4]triazol-3-yl]-propyl}-phenoxy)-2-methyl-propionic acid]
PPARα activation / PPRE-luc activity (PPARα): highest PPARα activation | body weight ([1]; 24 h vs 72 h (FIG. 8)): unaffected | body weights and food intake ([1]; vs control group): no significant differences | EC50 (mouse PPARα): 3 nM
